This is an account of results in patent US10512627B2, “Anti-tumor compound and the medical use thereof” (Tianjin Medical University Cancer Institute and Hospital, priority 2014, dated 2019).

This assay deals with human breast cancer cell MDA-MB-231. The experiment in a line: Transwell invasion assay through Matrigel (Example 5). It counts as cell-based. How it is done:
The inhibiting ability of (S)2-(4′-methyl-3′-nitrobenzoylamino)-3-phenylpropionic acid for the invasion of human breast cancer cell MDA-MB-231 was tested by Transwell invasion assay.
1) Gel placement into the Transwell chamber: Matrigel was melted under ice-bath of 4° C. overnight, and diluted with pre-cooled serum free DMEM medium at a ratio of 1:3. Transwell chamber was put in the 24-well plate, and 50 μL gel solution was added per chamber, stayed at 37° C. for 1 h, then 200 μL serum free DMEM medium was added and stayed for 15 min to make the gel reconstitute, and finally the medium was removed for stand-by;
2) MDA-MB-231 cells in logarithmic growth phase were plated in 6-well plate with the density of 1×10^6/3 mL, and after 12 h, the drug was added, with 100 μL per well. The final concentrations of (S)2-(4′-methyl-3′-nitrobenzoylamino)-3-phenylpropionic acid were 1, 2, and 4 μmol/L, respectively. The negative control was 100 μL sterilized water with 2% DMSO and the positive control was 1 μmol/L 4-methyl-3-nitrobenzoic acid. After 12 h, the medium was removed, followed by washing 3 times with PBS, and 3 ml medium without fetal bovine serum and 100 μL drug (concentration is as above) per well were added. […] The cell number was counted and the cells were seeded at the density of 2×10^5/200 μL into the Transwell chamber with the Matrigel. […]

In the case of `Cc1ccc(C(=O)N[C@@H](Cc2ccccc2)C(=O)O)cc1[N+](=O)[O-]` [(S)2-(4′-methyl-3′-nitrobenzoylamino)-3-phenylpropionic acid], the “invaded cell number compared to the negative control” value (1, 2, 4 μmol/L, 24 h, P<0.01) was “significantly less than the negative control”. Also, where the note is “2, 4 μmol/L, P>0.05”, the “invaded cell number compared to the positive control (1 μmol/L 4-methyl-3-nitrobenzoic acid)” value was “no significant difference”.
